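Five concentrations, 48 hours, 96-well plates. GI50 is the concentration that inhibits growth by half.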 The source made the active and inactive calls. Rule as the data show it: active = GI50 up to about 1.1 µM and inactive = higher. Residues, ends and D or L forms follow the SMILES beside them. *: point of attachment. Boc = CC(C)(C)OC(=O)*
Experiments:
Test in all cases: growth of human tumour cells (NCI), 48 h
[1] = test system: HOP-62
[2] = test system: TK-10
[3] = test system: OVCAR-4
[4] = test system: A498
[5] = test system: K562
[6] = test system: SF-295
[7] = test system: CAKI-1
[8] = test system: HCC 2998
[9] = test system: OVCAR-5
[10] = test system: HOP-92
[11] = test system: HCT-15
[12] = test system: MDA-MB-231
[13] = test system: MCF7
[14] = test system: RPMI-8226
[15] = test system: UO-31
[16] = test system: MDA-MB-435
[17] = test system: NCI/ADR-RES
[18] = test system: DU-145
[19] = test system: BT-549

Structure (SMILES)	GI50 [1]	GI50 [2]	GI50 [3]	GI50 [4]	GI50 [5]	GI50 [6]	GI50 [7]	GI50 [8]	GI50 [9]	GI50 [10]	GI50 [11] [µM]	GI50 [12]	GI50 [13]	GI50 [14]	GI50 [15]	GI50 [16]	GI50 [17]	GI50 [18]	GI50 [19]
COC(=O)C(=NNc1ccccc1[N+](=O)[O-])C(=O)OC	> 100 µM (inactive)	> 100 µM (inactive)	88.1 µM (inactive)	> 100 µM (inactive)	> 100 µM (inactive)	> 100 µM (inactive)	> 100 µM (inactive)	> 100 µM (inactive)	> 100 µM (inactive)	24.1 µM (inactive)									
CC(O)c1c2c(cc3c1CC1(C3)Cc3cc4c(c(C(C)O)c3C1)CCC4)CCC2 (centres undefined)	20.7 µM (inactive)	27.7 µM (inactive)	2.86 µM (inactive)	14.9 µM (inactive)	9.59 µM (inactive)	21 µM (inactive)		17.3 µM (inactive)	22.5 µM (inactive)	15.3 µM (inactive)	14.8	16.8 µM (inactive)	11.8 µM (inactive)	12.6 µM (inactive)	1.69 µM (inactive)	15.8 µM (inactive)	19.1 µM (inactive)		
CC(=O)/N=C1/N(/C=C2\C(=O)Oc3ccccc3C2=O)C(=O)/C(=C/c2ccccc2Cl)N1C	> 100 µM (inactive)		> 100 µM (inactive)	0.564 µM (active)	> 100 µM (inactive)	> 100 µM (inactive)	> 100 µM (inactive)	> 100 µM (inactive)	> 100 µM (inactive)		52.6	> 100 µM (inactive)	> 100 µM (inactive)	> 100 µM (inactive)		> 100 µM (inactive)	84.9 µM (inactive)	> 100 µM (inactive)	
Cc1cc2nc3c(=O)[nH]c(=O)nc-3n(CC(O)C(O)C(O)CO)c2cc1N (centres undefined)		> 100 µM (inactive)	> 100 µM (inactive)	> 100 µM (inactive)	> 100 µM (inactive)	> 100 µM (inactive)		> 100 µM (inactive)		> 100 µM (inactive)	> 100			> 100 µM (inactive)	> 100 µM (inactive)				
COc1cc2c(cc1OC)CC(=O)c1cc(OC)c(OC)cc1/C=C\2	> 12.5 µM (inactive)	> 12.5 µM (inactive)	> 12.5 µM (inactive)	> 12.5 µM (inactive)	3.45 µM (inactive)	7.16 µM (inactive)	> 12.5 µM (inactive)		> 12.5 µM (inactive)	> 12.5 µM (inactive)	5.85	> 12.5 µM (inactive)	> 12.5 µM (inactive)	> 12.5 µM (inactive)	> 12.5 µM (inactive)	3.92 µM (inactive)	> 12.5 µM (inactive)	> 12.5 µM (inactive)	
O=[N+]([O-])/C=C/COCc1cc2c(cc1Br)OCO2	20.1 µM (inactive)	17.4 µM (inactive)	18.6 µM (inactive)	27.6 µM (inactive)	58.2 µM (inactive)	36.8 µM (inactive)	20.6 µM (inactive)	16.7 µM (inactive)	16.7 µM (inactive)	23.2 µM (inactive)	18	18.9 µM (inactive)	17.2 µM (inactive)	39.5 µM (inactive)	17.2 µM (inactive)	13.9 µM (inactive)	21.1 µM (inactive)	18.9 µM (inactive)	
Cc1cc(O)c(C(O)c2ccccn2)cc1O (centres undefined)	89.1 µM (inactive)	16.6 µM (inactive)			3.77 µM (inactive)	> 100 µM (inactive)	11.7 µM (inactive)	21.3 µM (inactive)	17.2 µM (inactive)		18.2	17.5 µM (inactive)	18.1 µM (inactive)	20.4 µM (inactive)	19.1 µM (inactive)	18.7 µM (inactive)	27.5 µM (inactive)	37.9 µM (inactive)	
COC(=O)C(Cc1c[nH]c2ccccc12)NC(=O)C(Cc1c[nH]c2ccccc12)NC(=O)C(Cc1c[nH]c2ccccc12)NC(=O)C(Cc1c[nH]c2ccccc12)NC(=O)OC(C)(C)C (centres undefined) (Boc-WWWW-OMe; configuration not given here)	25.6 µM (inactive)	34.7 µM (inactive)	48.5 µM (inactive)		4.8 µM (inactive)		44.3 µM (inactive)	20.5 µM (inactive)	> 100 µM (inactive)		> 100	> 100 µM (inactive)	< 0.01 µM (active)	3.95 µM (inactive)	89.7 µM (inactive)	23.4 µM (inactive)		43.2 µM (inactive)	17.9 µM (inactive)
CN(C)/C=N\c1c(Br)cc(Br)c2nonc12	> 100 µM (inactive)	> 100 µM (inactive)	> 100 µM (inactive)	> 100 µM (inactive)	> 100 µM (inactive)	> 100 µM (inactive)	> 100 µM (inactive)	> 100 µM (inactive)	> 100 µM (inactive)	85.7 µM (inactive)	> 100	> 100 µM (inactive)	> 100 µM (inactive)	> 100 µM (inactive)	> 100 µM (inactive)	> 100 µM (inactive)	> 100 µM (inactive)	> 100 µM (inactive)	

— ChEMBL document CHEMBL1201862, “PubChem BioAssay data set” (2004)
